Assays:
[1] = LC-MS/MS screen of murine portal and peripheral blood for conjugated bile acids
From the text: Portal and peripheral blood was collected from additional SPF (n=4) and GF (n=6) mice and screened for the presence of conjugated bile acids.
Bile Acids in Murine Portal and Peripheral Blood. An additional 4 SPF and 6 GF female mice of the same strain analyzed for the initial study on the microbial metabolome were raised for analysis of blood. Portal blood and peripheral blood were sampled as described in the methods section and analyzed with the same LC-MS/MS protocols as the original animals.

[2] = test system: human fecal batch culture; experiment: Incubation with actively growing human fecal batch culture (metabolism by microbiota); type: in vitro ADME; settings: 10 μM bile acid, 24 h
From the text: FIGS. […]. Distribution and metabolism of novel conjugated bile acids. FIG. 9a) Molecular network of SPF duodenum MS/MS data and synthesized amino acid conjugated bile acids. LC-MS/MS data from synthetic standards was networked with murine samples and spectral matching through molecular networking is indicated by node greyscale. Mirror plots showing the alignment between the murine and standards are shown. Nodes shaped as arrowheads had hits in the GNPS libraries and node size is scaled to the spectral count. Tauro=Taurocholic acid. These experiments were repeated twice. FIG. 9b) 3D-molecular cartography of the mean abundance of the newly discovered conjugates mapped onto a 3D-rendered model of the murine GI tract as a heatmap according to the greyscale. Organs are labeled as described in FIG. 1. FIG. 9c) Molecular network of GF and SPF portal and peripheral blood conjugated bile acids. Nodes are colored by source as either GF and SPF or portal/peripheral blood. Arrowhead nodes represent known compounds in the GNPS spectral database, circular nodes represent unknowns. The annotations are through spectral matches against reference libraries (level 2 or 3^3). FIG. 9d) Mean area under curve abundance and standard deviations of bile acids of interest during incubation with an actively growing batch human fecal culture for 24 h (n=3). FIG. 9e) Molecular network of novel conjugated bile acids after incubation in a human fecal batch culture experiment. Each node represents a unique MS/MS spectrum and arrowhead shaped nodes indicate known spectra in the GNPS database. The nodes are greyscale by their retention time according to the legend and the mass shift between nodes are mapped onto the edge representing the cosine connection between related spectra. The H2 mass shift representing oxidation of the novel conjugates is shown. FIG. 9f) Mean ion intensity and standard deviations of the dehydrogenated forms of Phe-chol, Tyr-chol and Leu-chol through the 24 h batch fecal culture incubation (n=3).
Fecal Culture Bioreactor Inoculation. A 4 g stool sample was resuspended in 40 mL modified yeast casitone fatty acids media (mYCFA, DMSZ recipe) with 0.25% Antifoam B Silicon Emulsion (Baker) in a vinyl anaerobic chamber (Coy). The resuspension was centrifuged at 500× g for 5 minutes to pellet solids. The supernatant was decanted through a sterile […] filter. The filtrate was centrifuged at 4450× g for 10 minutes to pellet cells. The supernatant was discarded, and the pellet was resuspended in 40 mL mYCFA. The resuspension was drawn into a 60 mL syringe and injected into a 500 mL vessel of an Infors Multifors 2 bioreactor. The chemostat process parameters was modified from a previous process developed in^26. The chemostat volume parameters were; 400 mL culture volume, 24-hour retention rate, 50 mL/min nitrogen, stirrer at 250 rpm, and 37° C. temperature. […] 15 μL stocks were added to 12 mL mYCFA. After 11 days of continuous culturing, 24 mL bioreactor culture was withdrawn and transferred to the anaerobic chamber. 3 mL culture was added to the 12 mL mYCFA aliquots with the bile acids, for a total volume of 15 mL and final concentration of 10 μM bile acid. The cultures were vortexed and split into three 5 mL aliquots. At time 0 (blanks for each bile acid), 1, 3, 6, 12 and 24 hours, 0.1 mL aliquots were removed from the samples for metabolomics and 16S rRNA gene sequencing. […]

[3] = test system: FXR effector genes Fgf15, Shp, Cyp7a1, Cyp8b1; experiment: Bile acid gavage of mice, RT-qPCR of downstream FXR effector genes in ileum and liver; settings: for Fgf15 expression in the intestine, increase / Shp expression in the intestine, increase: oral gavage 500 mg/kg in corn oil
Experimental: The gene expression of Fgf15 and Shp in the ileum and Shp, Cyp8b1 and Cyp7a1 in the liver of mice gavaged with bile acids of interest were analyzed using quantitative reverse transcriptase-PCR analysis. The expression levels were normalized to the cellular housekeeping gene ribosomal phosphoprotein PO (36B4).
Bile acid Gavage of Mice. Eight-week-old Male C57BL/6J mice (Jackson Laboratory) were acclimated for 14 days and housed in groups of two throughout the duration of the experiment to mitigate cage effects. Mice were then dosed 2 times (24 hour) or 4 times (72 hour) (t=0 hr, t=24 hr, t=48 hr, t=72 hr) by oral gavage with either a mock control of corn oil without bile acids, or corn oil infused Tyr-chol (500 mg/kg body weight), Leu-chol (500 mg/kg body weight), cholic acid (500 mg/kg body weight) or the control FXR agonist GW4064 (10 mg/kg body weight). Starting 3 hours after the last gavage (t=75 hr, 72 hour treatment or t=25, 24 hour treatment), mice were euthanized by CO2 asphyxiation and samples were collected within a 6 hour period and snap frozen in a liquid nitrogen bath and stored at −80° C. prior to analysis. […] Ileum and liver samples were used for qPCR.
RT-qPCR Analysis of Downstream FXR Gene Expression. Mouse liver and ileum segments were directly homogenized in TRIzol and total RNA isolated. cDNA was synthesized from 1 μg of DNase-treated total RNA using Bio-Rad iScript Reverse Transcription supermix (#1708841) and mRNA levels of Fgf15, Shp, Cyp7b1 and Cyp7a1 were quantified by quantitative PCR with Advanced Universal SyBr Green Supermix (Bio-Rad, cat #725271). All samples were run in technical triplicates and relative mRNA levels were calculated by using the standard curve methodology and normalized to 36B4.

human FXR = target: T1, human FXR (Homo sapiens, UniProt Q96RI1); experiment: FXR luciferase reporter assay in HEK-293 cells; settings: for human FXR agonism: HEK-293 luciferase reporter
T1 sequence (Q96RI1 1-486): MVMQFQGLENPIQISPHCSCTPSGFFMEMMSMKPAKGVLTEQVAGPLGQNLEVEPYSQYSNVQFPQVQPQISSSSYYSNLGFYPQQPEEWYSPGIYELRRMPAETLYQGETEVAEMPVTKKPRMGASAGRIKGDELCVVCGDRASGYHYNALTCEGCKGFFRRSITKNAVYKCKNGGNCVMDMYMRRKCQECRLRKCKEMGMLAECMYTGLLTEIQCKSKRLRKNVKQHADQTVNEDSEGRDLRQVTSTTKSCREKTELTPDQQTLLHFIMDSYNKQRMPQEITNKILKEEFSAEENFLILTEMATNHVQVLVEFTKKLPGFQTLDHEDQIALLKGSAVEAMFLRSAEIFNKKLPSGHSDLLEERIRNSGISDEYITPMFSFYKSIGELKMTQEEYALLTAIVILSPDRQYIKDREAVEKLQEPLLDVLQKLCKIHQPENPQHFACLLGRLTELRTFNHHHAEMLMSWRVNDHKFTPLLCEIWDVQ
T1 sequence (P19793 1-462 partner): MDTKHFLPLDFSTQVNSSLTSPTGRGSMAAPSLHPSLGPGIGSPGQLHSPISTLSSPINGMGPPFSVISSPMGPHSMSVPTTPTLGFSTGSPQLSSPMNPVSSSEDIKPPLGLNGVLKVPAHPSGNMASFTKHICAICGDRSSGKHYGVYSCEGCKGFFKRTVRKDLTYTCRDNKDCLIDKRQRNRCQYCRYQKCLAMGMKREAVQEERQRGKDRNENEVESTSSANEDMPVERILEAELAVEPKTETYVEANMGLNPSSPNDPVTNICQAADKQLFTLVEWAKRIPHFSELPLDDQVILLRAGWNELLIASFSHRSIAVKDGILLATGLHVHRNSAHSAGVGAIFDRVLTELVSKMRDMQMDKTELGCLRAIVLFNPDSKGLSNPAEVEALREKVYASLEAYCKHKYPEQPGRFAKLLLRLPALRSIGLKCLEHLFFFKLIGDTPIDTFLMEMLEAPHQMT
Experimental: To assess the ability of the novel bile acids from the invention to affect human FXR signaling, a luciferase reporter assay was established in HEK-293 embryonic kidney cells^39.
Human kidney cell line HeK-293 was obtained from American Type Culture Collection (ATCC CRL-1573, tested for Mycoplasma contamination every 6 months). These cells were chosen due to their high transfectability and low FXR expression which allows for a robust signal to noise ratio. These 293 cells were cultured in Dulbecco's modified Eagle's medium/F-12 (DMEM) supplemented with 10% (V/V heat-inactivated fetal calf serum (FBS) and 100 units/ml penicillin G and 100 μg/ml streptomycin. 10,000 cells were seeded per well in 96-well plates one day before transfection of plasmids. DNA was transiently transfected by Lipofectamine 2000 and Opti-MDM in fasting state. The ratio of plasmid used in per well were 50 ng of FXR response element (FXRE)/luciferase reporter plasmid, 10 ng of pCMV-3flag-FXR (human) plasmid, 10 ng of pCMV-RXR (human) plasmid, and 5 ng of Renilla luciferase reporter plasmid as internal standard for transfection efficiency. […] Cells were harvested 24 hrs later and lysed with passive lysis buffer (Promega). Luciferase activities were measured by the Dual-Luciferase Reporter (DLR™) Assay kit and read by Luminometer (Perkin Elmer). The final Luciferase activities were normalized by dividing the relative light units by Renilla luciferase activity. Statistical analyses were performed using Prism software. Each dosage was done in 12 replicates.

In the case of C[C@H](CCC(=O)NCC(=O)O)[C@H]1CC[C@H]2[C@@H]3[C@H](O)C[C@@H]4C[C@H](O)CC[C@]4(C)[C@H]3C[C@H](O)[C@]12C [GCA, glycocholic acid, reference compound], the “presence in portal and peripheral blood” value ([1]; mouse, in vivo) is reported as “present”, the “deconjugation by the microbiota” value [2] is reported as “deconjugation readily occurred” and the “oxidation of the cholate core by microbial enzymes” value [2] is reported as “no concurrent oxidation”.

In the case of CC(C)c1onc(-c2c(Cl)cccc2Cl)c1COc1ccc(/C=C/c2cccc(C(=O)O)c2)c(Cl)c1 [GW4064, reference compound], the “ileum Shp expression vs corn oil control (significance)” value ([3]; gavage, 24 hr) is reported as “significance was also reached”.

For CC(C)C[C@H](NC(=O)CC[C@@H](C)[C@H]1CC[C@H]2[C@@H]3[C@H](O)C[C@@H]4C[C@H](O)CC[C@]4(C)[C@H]3C[C@H](O)[C@]12C)C(=O)O [Leu-chol, leucocholic acid], the “liver Cyp7a1 expression vs corn oil control (significance)” value ([3]; gavage, 24 hrs) was “significantly reduced”, the “liver Cyp8b1 expression vs corn oil control (significance)” value ([3]; gavage, 24 hrs) was “significantly reduced” and the “ileum Fgf15 signaling vs corn oil control (significance)” value ([3]; gavage, 72 hrs) was “significantly increased”. For the same molecule, the “ileum Shp signaling vs corn oil control (significance)” value ([3]; gavage, 72 hrs) was “significantly increased”, the “liver Cyp7a1 expression vs corn oil control (significance)” value ([3]; gavage, 72 hrs) was “significantly reduced” and the “liver Cyp8b1 expression vs corn oil control (significance)” value ([3]; gavage, 72 hrs) was “significantly reduced”. For the same molecule, the “liver Shp expression vs corn oil control (significance)” value ([3]; gavage, 72 hrs) was “significantly elevated”, the “presence in portal and peripheral blood” value ([1]; mouse, in vivo) was “not found” and the “deconjugation by the microbiota” value [2] was “not deconjugated”.

With C[C@H](CCC(=O)N[C@@H](Cc1ccccc1)C(=O)O)[C@H]1CC[C@H]2[C@@H]3[C@H](O)C[C@@H]4C[C@H](O)CC[C@]4(C)[C@H]3C[C@H](O)[C@]12C [Phe-chol, phenylalanocholic acid] the “presence in portal and peripheral blood” value ([1]; mouse, in vivo) was “not found”, the EC50 (human FXR) was 4.5 µM and the “human FXR agonism” value (human FXR) was “strong human FXR agonists”. For the same molecule, the “deconjugation by the microbiota” value [2] was “not deconjugated”.

For C[C@H](CCC(=O)NCCS(=O)(=O)O)[C@H]1CC[C@H]2[C@@H]3[C@H](O)C[C@@H]4C[C@H](O)CC[C@]4(C)[C@H]3C[C@H](O)[C@]12C [TCA, Taurocholic acid, reference compound], the “presence in portal and peripheral blood” value ([1]; SPF (n=4) and GF (n=6) mice, endogenous) was “present”.

With C[C@H](CCC(=O)N[C@@H](Cc1ccc(O)cc1)C(=O)O)[C@H]1CC[C@H]2[C@@H]3[C@H](O)C[C@@H]4C[C@H](O)CC[C@]4(C)[C@H]3C[C@H](O)[C@]12C [Tyr-chol, tyrosocholic acid] the “ileum Fgf15 expression vs corn oil control (significance)” value ([3]; gavage, 24 hr) was “significantly elevated”, the “Shp expression in the liver” value ([3]; gavage, 24 hrs) was “did not change detectably” and the “liver Cyp7a1 expression” value ([3]; gavage, 24 hrs) was 9 % of control. The “liver Cyp7a1 expression vs corn oil control (significance)” value ([3]; gavage, 24 hrs) was “significantly reduced”, the “liver Cyp8b1 expression” value ([3]; gavage, 24 hrs) was 69 % of control and the “liver Cyp8b1 expression vs corn oil control (significance)” value ([3]; gavage, 24 hrs) was “significantly reduced”. The “Shp expression in the liver, increase” value ([3]; gavage, 72 hrs) was 2.3 fold, the “ileum Fgf15 signaling vs corn oil control (significance)” value ([3]; gavage, 72 hrs) was “significantly increased” and the “ileum Shp signaling vs corn oil control (significance)” value ([3]; gavage, 72 hrs) was “significantly increased”. For the same molecule, the “liver Cyp7a1 expression vs corn oil control (significance)” value ([3]; gavage, 72 hrs) was “significantly reduced”, the “liver Cyp8b1 expression vs corn oil control (significance)” value ([3]; gavage, 72 hrs) was “significantly reduced” and the “liver Shp expression vs corn oil control (significance)” value ([3]; gavage, 72 hrs) was “significantly elevated”. For the same molecule, the “liver Cyp7a1 expression” value ([3]; gavage, 72 hrs (4 gavages)) was 8 % of control, the “liver Cyp8b1 expression” value ([3]; gavage, 72 hrs (4 gavages)) was 2 % of control and the “Fgf15 expression in the intestine, increase” value ([3]; 24 hrs) was 12.2 fold. For the same molecule, the “Shp expression in the intestine, increase” value ([3]; 24 hrs) was 13.3 fold, the “Fgf15 expression in the intestine, increase” value ([3]; 72 hrs (4 gavages)) was 6.2 fold and the “Shp expression in the intestine, increase” value ([3]; 72 hrs (4 gavages)) was 9.3 fold. The “presence in portal and peripheral blood” value ([1]; mouse, in vivo) was “not found”, the EC50 (human FXR) was 0.14 µM and the “human FXR agonism” value (human FXR) was “strong human FXR agonists”. The “deconjugation by the microbiota” value [2] was “not deconjugated”.

In the case of C[C@H](CCC(=O)O)[C@H]1CC[C@H]2[C@@H]3[C@H](O)C[C@@H]4C[C@H](O)CC[C@]4(C)[C@H]3C[C@H](O)[C@]12C [cholic acid, reference compound], the “ileum Shp expression vs corn oil control (significance)” value ([3]; gavage, 24 hr) is reported as “significance was also reached”, the “liver Cyp7a1 expression vs corn oil control (significance)” value ([3]; gavage, 24 hrs) is reported as “significantly reduced” and the “liver Cyp8b1 expression vs corn oil control (significance)” value ([3]; gavage, 24 hrs) is reported as “significantly reduced”. For the same molecule, the “ileum Fgf15 signaling vs corn oil control (significance)” value ([3]; gavage, 72 hrs) was “significantly increased”, the “ileum Shp signaling vs corn oil control (significance)” value ([3]; gavage, 72 hrs) was “significantly increased” and the “liver Cyp7a1 expression vs corn oil control (significance)” value ([3]; gavage, 72 hrs) was “significantly reduced”. The “liver Cyp8b1 expression vs corn oil control (significance)” value ([3]; gavage, 72 hrs) was “significantly reduced”.

Source: US11980645B2, “Bile acids and use in disease treatment” (The Regents of the University of California, priority 2019, dated 2024)
